Measurements: patent publication US20240392240A1, “PIG EMBRYO-DERIVED PLURIPOTENT STEM CELLS AND USE THEREOF” (CHINA AGRICULTURAL UNIVERSITY, priority 2021, published 2024)
Entries after “also recorded” stand apart in the source; their conditions may differ.

Experiments:
Format in all cases: cell-based, pig
pgEpiSCs [1] = test: qRT-PCR of marker gene mRNA in pgEpiSCs in modified 3i/LAF medium
Method: Total RNA from pgEpiSCs was extracted using the RNAprep Pure Cell/Bacteria Kit (TIANGEN, DP430), and then reverse transcribed to cDNA using 5×All-in-One RT Master Mix (Abm, G490). PCR was performed on a LightCycler480 II Real Time System (Roche) using 2×RealStar Green Power Mixture (GenStar, A311-05). The data were analyzed using the comparative CT (2^−ΔΔCT) method. ΔCT was calculated using EF1A as an internal control. All experiments were performed in three biological replicates. Primers used for quantitative real-time PCR are listed in the Resource table.
(§1) According to the 3i/LAF medium and its culture method described in Example 1, the inventors tested the requirement for each factor in the 3i/LAF medium for long-term in vitro maintenance of pgEpiSCs on the basis of removing the small molecule inhibitors and cytokines from the culture medium one by one without altering the other conditions.

pgEpiSCs [2] = test: Clone morphology and alkaline phosphatase (AP) staining of pgEpiSCs in modified 3i/LAF medium; details: for clone morphology and AP staining signal after removal of the factor: factor removed from 3i/LAF medium, other conditions unchanged, FIG. 2-1A
Method: The alkaline phosphatase staining of pgEpiSC was based on the Alkaline Phosphatase Assay Kit (Millipore, SCR004). Specific experimental steps followed the instructions of the kit.
Epiblast from pig E8-E10 embryos was obtained, and the epiblast was treated with TrypLE™ Express followed by repeatedly blowing to disperse into small cell masses. The cell masses were then inoculated into 12-well cell culture dishes (density of the feeder layer cells were approximately 2×10^5 cells/well) supplemented with 750 μL of 3i/LAF medium (Note: 10 μM Y27632 was added into the 3i/LAF medium), wherein the feeder layer cells were mouse embryonic fibroblasts treated with mitomycin C (Selleckchem, S8146) and cultured in an incubator at 37° C., 100% humidity, and 5% CO2. After 12 hrs, another 750 μL of 3i/LAF medium was added without changing the medium, and after 24 hrs, the medium was replaced with fresh 3i/LAF medium (containing 2 μM Y27632). After that, the medium was replaced with fresh medium every 12 hrs, and after the clones grew for 2-3 days, the morphology of the clones was observed and the clones were digested for passaging.
as §1
Experimental method: pgEpiSCs were cultured with the adjusted medium, after which AP staining was performed on the cultured pgEpiSCs of P1 (indicating the pgEpiSCs after 1 passage in the adjusted medium) or P3 (indicating the pgEpiSCs after 3 passages in the adjusted medium). The specific steps of AP staining are described in the section of Experimental Methods described previously.

pgEpiSCs [3] = test: Cell proliferation, survival and passaging of pgEpiSCs; details: for proliferation and passaging of pgEpiSCs: FGF2 removed and ERK/MEK inhibitor PD0325901 added, FIG. 2-1I to 2-1K
Method: pgEpiSCs were cultured in a 12-well plate. Cell samples were inoculated at a density of 2× 10^4 cells per well in triplicate. The number of cells was counted every 12 hours. For each time point, cells were digested and counted using a Luna™ Automated Cell Counter, and the results of three counts were averaged and plotted. The cell doubling time was calculated as follows: doubling time (DT)=24×[lg2/(lgNt−lgN0)], where 24 is the cell culture time (hour); Nt is the number of cells cultured for 48 hours; and No is the number of cells recorded at 24 hours.
as §1

pgEpiSCs [4] = test: Immunostaining of POU5F1 and EOMES in pgEpiSCs; details: factor removed from 3i/LAF medium; FIG. 2-1C
Method: Cells were washed with DPBS (Gibco, C14190500BT) and fixed with 4% paraformaldehyde for 30 min at room temperature, then washed with DPBS again, permeabilized in 0.1% Triton X-100 for 20 min and blocked with 3% BSA for 1 hour. Cells were incubated with primary antibody diluted with 3% BSA at 4° C. overnight. Cells were then washed three times for 3 min each with wash buffer (DPBS containing 0.1% Triton X-100 and 0.1% Tween 20). The secondary antibody was diluted, and incubated with wash buffer for 1 hour at room temperature, then washed three times for 5 min each with wash buffer, and then the nuclei were stained with DAPI (Roche Life Science, 10236276001) for 3 min.
as §1

phosphorylated STAT3 = test: Western blot of phosphorylated STAT3 in pgEpiSCs; details: with or without LIF; FIG. 2-1M
Method: Total proteins were extracted from cells by cell lysis buffer (Beyotime Biotechnology, P0013), and nuclear and cytoplasmic proteins were extracted using the nucleus and cytoplasmic protein extraction kit (Beyotime Biotechnology, P0027) supplemented with protease and phosphatase inhibitor cocktail (Beyotime Biotechnology, P1050) to extract nuclear and cytoplasmic proteins. The concentration of extracted proteins was measured using the Bradford Protein Assay Kit (Bio-red, 5000201). An equal amount of proteins (15 μg) was separated by SDS-PAGE gel electrophoresis, which were transferred from the gel to Immobilon-P transfer membrane (Merck Millipore; pore size: 0.45 μm; IPVH00010). The blots were blocked in 5% nonfat powdered milk (Sangon Biotech, A600669-0250) in TBST (20 mM Tris, pH 7.5; 150 mM NaCl; 0.1% Tween 20) at room temperature for 1 hour and then incubated with primary antibodies diluted in 5% nonfat powdered milk in TBST overnight at 4° C. The next day, the blots were rinsed three times with TBST for 5 minutes each time, then incubated together with HRP-coupled secondary antibody diluted in 5% nonfat powdered milk in TBST for 1 hour at room temperature. The blots were developed with SuperSignal West Dura Extended Duration Substrate (Thermo Fisher Scientific, 34075), and the intensity of the bands of the target proteins was analyzed using CLINX chemiluminescence software. […]

[5] = high concentration of CHIR99021 in the medium, FIG. 2-1E, 2-1F, 2-2C, 2-2D
[6] = inhibitor added into the culture medium, FIG. 2-1H
[7] = factor removed from 3i/LAF medium, FIG. 2-1B
[8] = only IWR-1-endo replaced with XAV939, FIG. 2-2B
[9] = only IWR-1-endo replaced with XAV939, FIG. 2-2A

With `Cc1c[nH]c(-c2cnc(NCCNc3ccc(C#N)cn3)nc2-c2ccc(Cl)cc2Cl)n1` [CHIR99021] the “expression of cell proliferation-related genes (LIN28A, C-MYC, ETV4, ETV5) after removal of the factor” value (pgEpiSCs [1]; factor removed from 3i/LAF medium, FIG. 2-1D) was “down-regulated”, the “expression of GATA6 at high concentration” value (pgEpiSCs [1]; [5]) was “significant up-regulation; also recorded: up-regulated” and the “expression of pluripotency marker POU5F1 at high concentration” value (pgEpiSCs [1]; [5]) was “down-regulation; also recorded: decreased”.
For `NC(=O)c1ccc(-c2nc(-c3ccc4c(c3)OCO4)c(-c3ccccn3)[nH]2)cc1` [SB431542], the “level of NANOG after addition of the inhibitor” value (pgEpiSCs [1]; inhibitor added into the culture medium, FIG. 2-1G, 2-1H) was “dramatic decrease”, the “BMP4 and BMP downstream transcription factors (ID2, ID3) after addition of the inhibitor” value (pgEpiSCs [1]; [6]) was “significant increase” and the “pluripotency markers (POU5F1, REX1) after addition of the inhibitor” value (pgEpiSCs [1]; [6]) was “significant decrease”. The “clone morphology after addition of the inhibitor” value (pgEpiSCs [2]; inhibitor added into the culture medium, FIG. 2-1G, 2-1L) was “irregular clone morphology”.
With “Activin A: TGF-β superfamily member, cytokine of the 3i/LAF medium (Peprotech, 120-14E)” the “level of pluripotency marker NANOG after removal of the factor” value (pgEpiSCs [1]; factor removed from 3i/LAF medium, FIG. 2-1G, 2-1H) was “decrease”.
For `O=C(NOC[C@H](O)CO)c1ccc(F)c(F)c1Nc1ccc(I)cc1F` [PD0325901], the “proliferation and passaging of pgEpiSCs” value (pgEpiSCs [3]) was “could not proliferate or be passaged normally”.
For `COc1ccc(N(C(=O)Oc2c(C)cccc2C)c2ccnc(Nc3ccc(N4CCN(C)CC4)cc3)n2)c(OC)c1` [WH-4-023], the “expression of gastrulation marker genes BMP2, BMP4, EOMES and T after removal of the factor” value (pgEpiSCs [1]; [7]) was “up-regulation”, the “mesodermal and endodermal progenitor marker EOMES immunostaining after removal of the factor” value (pgEpiSCs [4]) was “promoting the expression” and the “pluripotency factor POU5F1 immunostaining after removal of the factor” value (pgEpiSCs [4]) was “reduced accumulation or heterogeneity”.
`Oc1nc(-c2ccc(C(F)(F)F)cc2)nc2c1CSCC2` [XAV939] was tested, and the “expression of core pluripotency factor OCT4 (POU5F1) after IWR-1-endo replacement” value (pgEpiSCs [1]; [8]) was “down-regulated”, the “expression of pluripotency factors REX1, STELLA and ESRRB after IWR-1-endo replacement” value (pgEpiSCs [1]; [8]) was “down-regulated” and the “passaging at which AP positivity was lost (figure legend)” value (pgEpiSCs [2]; IWR-1-endo replacement with XAV939, FIG. 2-2A) was “around 8 passages of passaging”. The “maintenance of pluripotency after IWR-1-endo replacement” value (pgEpiSCs [2]; [9]) was “unable to maintain pluripotency for a long period of time” and the “passaging at which AP positivity was lost” value (pgEpiSCs [2]; [9]) was “about 8 generations of passaging”.
For “FGF2: fibroblast growth factor, cytokine of the 3i/LAF medium (Peprotech, 100-18B)”, the “proliferation and passaging of pgEpiSCs” value (pgEpiSCs [3]) was “could not proliferate or be passaged normally”, the “proliferative capacity of pgEpiSCs on decreasing the concentration” value (pgEpiSCs [3]; decreasing FGF2 concentration, all other conditions unchanged, FIG. 2-1K) was “significantly reduced” and the “cell proliferation at high concentrations” value (pgEpiSCs [3]; high concentrations of FGF2, FIG. 2-1K) was “faster cell proliferation”.
With “LIF: cytokine of the 3i/LAF medium (PeproTech, 300-05)” the “detection of phosphorylated STAT3” value (phosphorylated STAT3) was “could be detected only in the presence of LIF” and the “clone morphology and AP staining signal after removal of the factor” value (pgEpiSCs [2]; 2-1L) was “not necessary to maintain the morphology”.
With `O=C(Nc1cccc2cccnc12)c1ccc(N2C(=O)[C@@H]3[C@H](C2=O)[C@@H]2C=C[C@H]3C2)cc1` [IWR-1-endo] the “expression of core pluripotency factors (NANOG, POU5F1, SOX2, REX1) after removal of the factor” value (pgEpiSCs [1]; [7]) was “significant down-regulation”, the “expression of gastrulation marker genes BMP2, BMP4, EOMES and T after removal of the factor” value (pgEpiSCs [1]; [7]) was “up-regulation” and the “mesodermal and endodermal progenitor marker EOMES immunostaining after removal of the factor” value (pgEpiSCs [4]) was “promoting the expression”. For the same compound, the “pluripotency factor POU5F1 immunostaining after removal of the factor” value (pgEpiSCs [4]) was “reduced accumulation or heterogeneity” and the “clone morphology and AP staining signal after removal of the factor” value (pgEpiSCs [2]; 2-1L) was “poorly defined boundaries of the pgEpiSC clone”.
